Tests used:
[1] = tested on: rats
Description: Twenty 2-month old, male Sprague Dawley (SD) rats were housed in a temperature-controlled room (22° C. to 25° C.) with a dark period from 08:00 pm to 08:00 am daily. […] Over 7 days before the training and trial period began, each rat was handled and habituated to the maze and to Kellogg's Froot Loop cereal.
Each rat underwent a test of one trial, followed by an interval of 10-minutes, followed by another trial, and so on, for a total of 6 trials in one day. In each trial, each rat went through a sample run in the maze, followed by an interval of 15 seconds, followed by a choice run in the maze. In the sample run, the subject rat was forced to go to the left or to the right by the presence of a block, according to a pseudorandom sequence (with an equal number of left turns and right turns, and no more than two consecutive turns in the same direction). As a reward, Froot Loop cereal was available in the food well at the end of the run, regardless of the direction that was taken by virtue of the block. In the choice run, the block that had been present in the preceding sample run was removed, and the rat was allowed to choose to go to the left or to the right. As a reward, Froot Loop cereal was available in the food well at the end of the run, only when the rat had made a “correct choice” by choosing the direction opposite that taken in the preceding sample run. […]
On the first day (designated day 0) of the feeding of the two groups, as just described, each rat underwent a preliminary test of one trial, followed by an interval of 10 minutes, followed by another trial, and so on, for a total of 4 trials in one day. […] In this preliminary test, the choice accuracy level, or ratio of correct choices made, co, to the number of number of trials in the test, no, was determined for each rat. […]
Three groups of animals (young, aging, and magnesium-treated aging rats) were used. […] Spatial working memory was assessed using a T-maze non-matching-to-place task. […] Spatial working memory was first assessed on an elevated T-maze. […]

[2] = tested on: rats; assay: Novel object recognition test in rats; type: in vivo, Sprague-Dawley rats
Description: In this example, the effect of magnesium supplementation on recognition memory was tested. Three groups of rats were used in these experiments: 1) young rats (three months old); aging rats (12-14 months old), and; 3) magnesium-treated aging rats (12-14 months old, diet supplemented with 6 mg/kg MgCl2 from 8 months of age). We used experimentally naive, female, Sprague-Dawley young […], aging (12-14 month old) and […] rats (Charles River) at the beginning of the behavior experiments. They were housed two per cage with continuous access to food and water under a 12:12 light-dark cycle, with light onset at 8:00 a.m. […] All experiments involving animals were approved by the Massachusetts Institute of Technology's and Tsinghua University Committees on Animal Care.
The three groups of rats were tested for recognition memory using an object recognition test with a single exposure to the object during training. The task is based on the natural tendency of rodents to explore new objects and tests the animals' memory capacity for distinguishing novel versus familiar objects.
Briefly, the rats were first individually habituated to the personnel and then to open-field arena during 2 weeks. […] The retention intervals were 10 min and 24 hours. Objects were cleaned thoroughly between trials with 20% ethanol solution to ensure the absence of olfactory cues. The particular objects for a given trial were randomly determined, but each object was used for only one trial per rat. Memory of the familiar object is associated with increased exploration of the new object and an exploration index (% correct) is calculated as new object inspection time/30.
In this example, the effect of magnesium supplementation on memory consolidation was studied. […]
Briefly, the rats were first individually habituated to the personnel and then to open-field arena during 2 weeks. […] The particular objects for a given trial were randomly determined, but each object was used for only one trial per rat. […]

[3] = tested on: rats; details: 2% in food for 8 days, cited from earlier work
[4] = tested on: mice genetically altered to present symptoms of Alzheimer's disease (AD); assay: Modified Morris water maze test in AD mice; type: in vivo; details: AD mice aged 13 months, compared with aricept
Description: Another group, the control group, of 10 mice that were genetically altered to present symptoms of AD were fed a Control Diet, a diet of normal solid food and water, for 30 days.
The pool used was a pool of water in a circular metal tank (150 cm in diameter and 50 cm in depth) having a water height of 30 cm and a water temperature that was maintained at ˜22° C. The pool was placed in a moderately lit area and surrounded by a black curtain. An acrylic platform (15 cm in diameter) was placed 2 cm below the surface of the water in the middle of one quadrant of the pool, equidistant from the center and the edge of the pool. Outside the pool, a cue was placed so as to be visible to a mouse in the maze, allowing a mouse to use it as a landmark for spatial orientation. The cue remained unchanged throughout the test period.
On the first day of the training and testing period, the water in the pool was transparent, such that the platform was visible. Each mouse was trained to swim towards the platform and to stand on the platform so as not to be submerged in the pool. […] The amount of time the mouse took to find the platform, referred to as “escape latency,” was recorded for each trial.
On the second day of the training and testing period, a small quantity of milk was added to the water in the pool, such that the pool was opaque and the platform was no longer visible. […]

## [Cl-].[Cl-].[Mg+2] [MgCl2, magnesium chloride]
[1]; after 8 days of training, 15 s delay
  asymptotic choice accuracy level: ~94%
[1]; aging rats, MgCl2 diet, 2 and 5 min delays
  spatial working memory at increased delay: significantly enhanced the performance of the aging rats at 2 and 5 min delays
[1]; aging rats, MgCl2 diet, 15 sec delay
  learning in non-matching-to-place task: performed significantly better from their first trials
[2]; aging rats 12-14 months, 6 mg/kg MgCl2 from 8 months of age, single training
  novel object exploration preference, 10 minute retention interval: preferentially explored the novel object to the same extent as young rats
[2]; aging rats, 6 mg/kg MgCl2, single training
  novel versus familiar object discrimination, 24 hours retention: lose there ability to distinguish novel versus familiar objects
[2]; aging rats, two training sessions separated by 10 minutes
  preference for the novel object, 24-hour retention after spaced training: retained a high level of preference

## [O]=[Mg] [magnesium oxide]
[3]
  side-effect: diarrhea and weight loss
[3]; young (9-month) and aged (25-month) rats
  cognitive function: some sign of improvement of cognitive function

## CC12CC3CC(C)(C1)CC(N)(C3)C2 [memantine]
[4]
  reduction of the effects of AD on learning capacity, comparison of anti-AD drugs: better at reducing the effects of AD on learning capacity than aricept

Source: patent US8178132B2, “Magnesium-containing food compositions” (Magceutics, Inc., priority 2007, dated 2012)
